Data reported in US20260263376A1, “THERAPEUTIC DELIVERY VECTORS COMPRISING AMPHIPHILIC BLOCK COPOLYMERS” (Swansea University, priority 2023, published 2026).

Tests used:
[1] = test system: SKOV-3 WT; assay: Endocytosis elucidation with chemical inhibitors prior to NP(DiD) treatment, flow cytometry; format: cell-based; conditions: inhibitor before NP treatment
Method: (§1) FIG. 19 NP(DiD) uptake following 24 h exposure in OVCAR-3 (a) and SKOV-3 (b). Uptake quantification measured using corrected total cell fluorescence method and plotted for 24 (c), 48 (d) and 72 h (e) NP(DiD) treatments. Endocytosis elucidation conducted using chemical inhibitors, prior to NP(DiD) treatments and cells analyzed using flow cytometry. Example of cell population positive for NP8 in SKOV-3 WT (f) and endocytosis pathway distribution graphs for OVCAR-3 WT (g) and SKOV-3 (h).
Internalization and quantification of nanoparticles was characterized using fluorescently labelled nanoparticles, Vybrant DiD™ loaded particles were fabricated (co-dissolution as previously described) followed by spin filtration to remove non-encapsulated dye. 2D Cell cultures were treated with NP(DiD) for 24, 48 and 72 h. […] Corrected total cell fluorescence (CTCF) was calculated.[36] Microtissue penetration was conducted using the same fluorescently labelled NPs. Spheroids (2×10^3 cells) were seeded 48 h prior to use, 10 spheroids per NP were treated for 24 h with 20 μL stock NP(DiD).[37] […] Data was visualized using MATLAB code form CellStream exports to create violin plots of total populations. […] Nanoparticle, cell counter staining and imaging all conducted as described above. Uptake thresholding into binary high and low uptake conditions was conducted using quantification histograms and manual identification of population peaks.

[2] = test system: OVCAR-3 WT; assay: as above; format: cell-based; conditions: inhibitor before NP treatment
Method: as §1
Internalization and quantification of nanoparticles was characterized using fluorescently labelled nanoparticles, Vybrant DiD™ loaded particles were fabricated (co-dissolution as previously described) followed by spin filtration to remove non-encapsulated dye. 2D Cell cultures were treated with NP(DiD) for 24, 48 and 72 h. 426 Cells were co-stained for nuclei using 16.2 μM Hoescht. Cells were imaged using CLSM or quantified following detachment using CellStream (A2 for DAPI channel, 428 B6 for DiD channel). Corrected total cell fluorescence (CTCF) was calculated.[36] Microtissue penetration was conducted using the same fluorescently labelled NPs. […] Uptake thresholding into binary high and low uptake conditions was conducted using quantification histograms and manual identification of population peaks.

| Molecule | increase in cell population positive for NPs [1] [%] | increase in mean florescence [1] | drop in fluorescence [2] [%] | drop in fluorescence [1] [%] |
| --- | --- | --- | --- | --- |
| CCN(CC)CCCC(C)Nc1ccnc2cc(Cl)ccc12 (stereo not shown) [chloroquine] | 3 | 3×10^5 |  |  |
| NAV 2729 |  |  | 90 | 90 |
